# PubChem BioAssay AID2765 (Broad Institute, 2010)
# The source made the active and inactive calls.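 How the source made its calls: active means half-maximal concentration for the rise in caspase light signal at or below ten times the top tested dose; inconclusive means flat fit between 30% and 70% activity, or unreliable curve fit; inactive means the rest.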
# Tested on: MEF A1-2A-BIM cells, caspase 3/7 luminescence, 3 h
# Test: inducers of caspase signal in A1-dependent MEFs – cell-based, luminescence, retest, A1 inhibitor project, dose response (AID 2765)
row,SMILES,EC50
1,Cc1ccc(C(=O)Nc2ccc(N3CCOCC3)nc2N2CCOCC2)cc1,> 35 µM (inactive)
2,CC1CC(C)CN(C(=O)CCCn2c(=S)[nH]c3ccccc3c2=O)C1 (stereo not given),> 35 µM (inactive)
3,CN(C)S(=O)(=O)c1cccc(C(=O)Nc2n[nH]c(C(F)(F)F)n2)c1,> 35 µM (inactive)
4,Cc1ccc(C)c(N(C(=O)CCC(=O)Nc2cc(C)on2)C(C(=O)NC2CCCC2)c2ccco2)c1 (stereo not given),> 35 µM (inactive)
5,Cc1ccc(C=C2C(Cl)=C(Cl)C(Cl)=C2Cl)cc1,7.19 µM
6,COc1ccc(C[C@H]2NC[C@H](O)[C@H]2OC(C)=O)cc1,> 35 µM (inactive)
7,NC(=O)c1ccc(NC(=O)CSc2nnc(C3CC3)n2C2CC2)cc1,> 35 µM (inactive)
8,O=C(CN1C(=O)COc2ccccc21)NCCCN1CCc2ccccc2C1,> 35 µM (inactive)
9,CSCCC(NS(=O)(=O)c1ccc(C)cc1)C(=O)NCCc1c[nH]c2ccccc12 (stereo not given),> 35 µM (inactive)
10,CCOC(=O)c1cccc(NC(=O)CN(c2ccc(C)cc2)S(=O)(=O)c2c(C)noc2C)c1,> 35 µM (inactive)
11,O=C(NC(Cc1ccccc1)C(=O)N1CCCCCC1)c1ccccc1 (stereo not given),> 35 µM (inactive)
12,CC(=O)[C@]1(O)Cc2c(O)c3c(c(O)c2[C@@H](O[C@H]2C[C@H](N)[C@H](O)[C@H](C)O2)C1)C(=O)c1ccccc1C3=O,> 35 µM (inactive)
13,COc1cc(CN2CCNC(=O)C2CC(=O)N(C)CCCN2CCOCC2)cc(OC)c1 (stereo not given),> 35 µM (inactive)
14,CCOC(=O)[C@H]1[C@H]2COc3ccc(OC)cc3[C@@H]2N2C(=O)CN(CC3CCCO3)C(=O)[C@@]12C (stereo not given in full),> 35 µM (inactive)
15,O=S1(=O)C=C(Sc2nnc(-c3ccccc3)o2)c2ccccc21,> 35 µM (inactive)
16,CCN(CC(=O)NCc1ccc(Cl)cc1)S(=O)(=O)c1ccc(F)cc1,> 35 µM (inactive)
17,O=C(CCC(=O)N1CCN(c2ccccc2F)CC1)N1CCN(c2ccccc2)CC1,> 35 µM (inactive)
18,Cc1ccc2c(c1)c(C1=c3ccccc3=NC1=O)c(O)n2C,> 35 µM (inactive)
19,COc1ccccc1N1C(=O)c2cccc3c(Cl)ccc(c23)C1=O,> 35 µM (inactive)
20,Cc1c(C(=O)O)cccc1N1C(=O)Nc2ccccc2N1O,> 35 µM (inactive)
21,CCOc1ccccc1C(=O)N[C@H](C(=O)OCc1cc([N+](=O)[O-])cc2c1OCOC2)C(C)C,> 35 µM (inactive)
22,COc1ccc(C(=O)N/C(=C/c2cccs2)C(=O)NN)cc1OC,> 35 µM (inactive)
23,C=CCn1c(SCC(=O)NC2CC2)nnc1-c1ccccn1,> 35 µM (inactive)
24,O=c1c(O[C@@H]2O[C@H](CO)[C@@H](O)[C@H](O)[C@H]2O)c(-c2ccc(O)cc2)oc2cc(O)cc(O)c12,> 35 µM (inactive)

row,SMILES,EC50
1,O=C(CSc1ccc(F)cc1)Nc1ccc(C2SCCS2)cc1,> 35 µM (inactive)
2,Cn1nc(-c2ccc(OCC(=O)NCC3CCCO3)cc2)c2ccccc2c1=O (stereo not given),> 35 µM (inactive)
3,CC(=O)N1CCN(C2c3cccc4cccc(c34)C2NS(=O)(=O)c2ccccc2)CC1 (stereo not given),> 35 µM (inactive)
4,CCCCc1ccc(S(=O)(=O)NC2CCS(=O)(=O)C2)cc1 (stereo not given),> 35 µM (inactive)
5,COc1cc(/C=C/[N+](=O)[O-])ccc1OC(=O)c1cccnc1,12.5 µM
6,COc1cc(C(=O)Nc2cc3c(cc2N2CCCCC2)n(C)c(=O)n3C)cc(OC)c1OC,> 35 µM (inactive)
7,CCCn1c(SCC(=O)NC)nc2sc3c(c2c1=O)CCC3,> 35 µM (inactive)
8,CCOc1ccc(-c2ccc(NS(=O)(=O)c3ccc([N+](=O)[O-])cc3)cc2)nn1,> 35 µM (inactive)
9,Cc1cc(=O)[nH]c(SCC(=O)Nc2ccc(Br)cc2)c1C#N,> 35 µM (inactive)
10,O=C1NCCCC1C(=O)N/N=C/c1cccc([N+](=O)[O-])c1 (stereo not given),> 35 µM (inactive)
11,COc1ccc(C(=O)/C=C/C(=O)N(CC(=O)NC2CCCCC2)Cc2cccs2)c(O)c1,> 35 µM (inactive)
12,COc1ccc(OC)c2[nH]c(C(=O)N3CCC(C(=O)O)CC3)cc12,> 35 µM (inactive)
13,CCCOc1ccc(N2C(=O)C3ON(c4ccccc4)C(CCC)C3C2=O)cc1 (stereo not given),> 35 µM (inactive)
14,COc1ccc(C(=O)COC(=O)CNS(=O)(=O)c2ccc(C)cc2)cc1,> 35 µM (inactive)
15,CC(=O)Nc1ccc(/C(C)=N/Nc2nc(Nc3ccccc3)nc(N3CCOCC3)n2)cc1,> 35 µM (inactive)
16,Nc1c(C(=O)Nc2ccc(S(=O)(=O)N3CCCC3)cc2)sc2nc3ccc(OC(F)(F)F)cc3cc12,8.62 µM
17,O=C1/C(=C/c2ccc(N3CCOCC3)o2)SC(=Nc2ccccc2)N1CCc1c[nH]c2ccccc12,9.16 µM
18,OC(CNCC1COc2ccccc2O1)COc1ccc(Cl)cc1 (stereo not given),> 35 µM (inactive)
19,O=C(CCCOc1ccc(Cl)cc1Cl)Nc1ncccn1,> 35 µM (inactive)
20,N#CN=C1SCCS1,> 35 µM (inactive)
21,CNC(=S)NC1(C)CCS(=O)(=O)C1 (stereo not given),> 35 µM (inactive)
22,O=C(Nc1cccc([N+](=O)[O-])c1)Nc1ccc2c(c1)CCC2,> 35 µM (inactive)
23,CC(=O)c1cccc(CN2CCN(CCc3ccccc3)C(CCO)C2)c1 (stereo not given),> 35 µM (inactive)
24,Cn1cnnc1SCC(=O)Nc1ccc(F)cc1,> 35 µM (inactive)

row,SMILES,EC50
1,COc1ccc(CCNC(=O)CCOc2ccc(C)cc2)cc1OC,> 35 µM (inactive)
2,CN(C)c1ccc(S(=O)(=O)N(C)C)cc1[N+](=O)[O-],> 35 µM (inactive)
3,COCCNC(=O)C(c1ccco1)N(C(=O)Cn1nnc2ccccc21)c1ccc(C)cc1C (stereo not given),> 35 µM (inactive)
4,O=C(c1cc2sccc2n1Cc1ccc(F)cc1)N1CCCc2ccccc21,> 35 µM (inactive)
5,COc1cc(S(=O)(=O)Nc2ccncc2)ccc1F,> 35 µM (inactive)
6,CS(=O)(=O)Nc1ccc(C2=NN(C(=O)c3cccc(F)c3)C(c3cccs3)C2)cc1 (stereo not given),> 35 µM (inactive)
7,COc1cc(/C=C(/C#N)c2nc3ccccc3[nH]2)ccc1OCC(=O)Nc1ccccc1C,4.3 µM
8,COc1ccc(S(=O)(=O)N(CC(=O)NCCSc2ccccn2)c2ccccc2)cc1,> 35 µM (inactive)
9,CN(C)CCN(C(=O)/C=C/c1cccs1)c1nc2c(F)cc(F)cc2s1,36.1 µM
10,COc1ccc(-c2cc3ccccc3oc2=O)cc1NC(=S)NC(=O)c1ccc2c(c1)OCCO2,6.8 µM
11,Nc1nc(Cl)nc2c1ncn2[C@H]1C[C@H](O)[C@@H](CO)O1,> 35 µM (inactive)
12,CO/N=C/C(C#N)=C/c1cc(C(=O)c2ccccc2)cn1C,> 35 µM (inactive)
13,CCS(=O)(=O)c1ncc(Cl)c(C(=O)Nc2ccccc2OC)n1,> 35 µM (inactive)
14,COc1cc2sc3ccc(C#Cc4ccc(N)cc4)cc3c(=O)c2cc1OC,> 35 µM (inactive)
15,Cc1ccc(NC(=S)N(CCCN2CCCC2)Cc2cccn2Cc2ccc(Cl)cc2)cc1Cl,> 35 µM (inactive)
16,COc1ccc2[nH]c(=O)c(CN(CC3CCCO3)C(=O)Nc3ccccc3)cc2c1 (stereo not given),> 35 µM (inactive)
17,COc1ccc([C@H]2CC(=O)C=C(c3ccccc3C(F)(F)F)C2)cc1,> 35 µM (inactive)
18,C[N+](C)(C)CCNC(=O)c1cc[n+](Cc2ccccc2)c(/C=N/O)c1,> 35 µM (inactive)
19,CCOc1cccc(C2C(C(=O)c3ccc(C)o3)=C(O)C(=O)N2Cc2ccncc2)c1 (stereo not given),> 35 µM (inactive)
20,CC1CCc2nn(CC(=O)NCCCN3CCCC3=O)cc2C1 (stereo not given),> 35 µM (inactive)
21,CCOC(=O)[C@@H]1[C@H]2COc3ccc(Br)cc3[C@H]2N2C(=O)N(c3ccc(Cl)cc3)C(=O)[C@@]12C,> 35 µM (inactive)
22,CCCCCCCC/C=C\CCCCCCCC(=O)O,> 35 µM (inactive)
23,CCCNC(=O)N1[C@H]2CC[C@@H]1C(C(=O)OC)=C(c1c(C)noc1C)C2,> 35 µM (inactive)
24,O=C(CS(=O)c1ccc(C(F)(F)F)cc1[N+](=O)[O-])Oc1ccccc1 (stereo not given),> 35 µM (inactive)

row,SMILES,EC50
1,Cc1cc(=O)oc2c1c(C)nn2-c1ccc(Cl)cc1,> 35 µM (inactive)
2,O=S1(=O)C=C(Sc2nc3cc(Cl)ccc3o2)c2ccccc21,> 35 µM (inactive)
3,CCN(CC)c1ncnc2c1cnn2Cc1ccc(Cl)cc1,> 35 µM (inactive)
4,COC(=O)Cc1csc(/N=C/c2c(O)n(-c3cccc(C(F)(F)F)c3)c(=O)c3ccccc23)n1,5.7 µM
5,O=C(O)COc1ccccc1C=NNc1ccc([N+](=O)[O-])cc1S(=O)(=O)Nc1ccc(Cl)cc1,> 35 µM (inactive)
6,Cc1cccc2c3c([nH]c12)CCN(C)C3,> 35 µM (inactive)
7,CCN(CC)c1ccc2c(c1)oc(=O)c1c(Cl)cc(=O)oc12,> 35 µM (inactive)
8,Cc1ccc(NC(=S)NC(NC(=O)Cc2cccc3ccccc23)C(Cl)(Cl)Cl)cc1 (stereo not given),20 µM
9,CCN(C(=O)c1ccc2c(=O)n3c(nc2c1)CCCCC3)c1ccccc1C,> 35 µM (inactive)
10,CCOC(=O)C(=Cc1ccc(OCc2ccc([N+](=O)[O-])cc2)c(OC)c1)C(=O)OCC,> 35 µM (inactive)
11,Cc1cc(S(=O)(=O)N2CCCOC2CNC(=O)C(=O)NCc2ccco2)ccc1F (stereo not given),> 35 µM (inactive)
12,Cc1cc(C2C(C#N)=C(N)SC(N)=C2C#N)c(C)s1,> 35 µM (inactive)
13,COc1cccc(C(=O)NCC(=O)N/N=C/c2ccc(OC(=O)c3cccs3)c(OC)c2)c1,> 35 µM (inactive)
14,O=C(NCCN1CCOCC1)c1cc(Cl)ccc1Cl,> 35 µM (inactive)
15,CCSc1ccc(-c2nn(-c3ccccc3)cc2/C=C(/C#N)C(=O)NC)cc1,> 35 µM (inactive)
16,CC(=O)Nc1ccc(SC[C@H](Cc2ccccc2)N2CC[C@@H](C(C)(C)C)CCC2=O)cc1,> 35 µM (inactive)
17,CCc1noc(C)c1C(=O)N(CC)CC(=O)NCc1ccc(Cl)cc1,> 35 µM (inactive)
18,Cc1ccc(N(Cc2cc(=O)[nH]c3ccccc23)C(=O)CCl)cc1,> 35 µM (inactive)
19,Brc1ccc(CN2CCN(Cc3c[nH]c4ccccc34)CC2)cc1,> 35 µM (inactive)
20,COc1ccc(C2C(C(=O)c3ccc(C)o3)=C(O)C(=O)N2Cc2cccnc2)cc1OC (stereo not given),> 35 µM (inactive)
21,CCc1ccc(CN/C=C/C(=O)c2ccc(Br)cc2)cc1,> 35 µM (inactive)
22,COc1ccccc1-c1cc(C(F)(F)F)nc(S(=O)(=O)CCCC(=O)N2CCOCC2)n1,28.7 µM
23,COCCCn1cc(C(=O)c2cc(OC)ccc2OCC(=O)N2CCCCC2C)cc(C#N)c1=O (stereo not given),> 35 µM (inactive)
